According to article PMC10895697 (JAC-Antimicrobial Resistance, 2024):

Tests used:
S. aureus = tested on: S. aureus; set-up: method as in ref 19 (Abad et al.); conditions: concentrations 10x or 100x respective MICs; ref 19 (Abad et al.); cited from earlier work
S. aureus 1333 (MSSA) = test: MIC/MBC by broth microdilution reference method; format: cell-based, Staphylococcus aureus; conditions: strain 1333, MSSA multi-susceptible; broth microdilution
S. aureus 1334 (MSSA) = test: MIC/MBC by broth microdilution reference method; format: cell-based, Staphylococcus aureus; conditions: strain 1334, MSSA multi-susceptible; broth microdilution
S. aureus 1814 (MRSA) = test: MIC/MBC by broth microdilution reference method; format: cell-based, Staphylococcus aureus; conditions: strain 1814, MRSA ciprofloxacin resistant; broth microdilution
S. aureus 1815 (MRSA) = test: MIC/MBC by broth microdilution reference method; format: cell-based, Staphylococcus aureus; conditions: strain 1815, MRSA gentamicin and erythromycin resistant; broth microdilution
S. aureus 1816 (MSSA) = test: MIC/MBC by broth microdilution reference method; format: cell-based, Staphylococcus aureus; conditions: strain 1816, MSSA multi-susceptible; broth microdilution
S. aureus 1817 (MSSA) = test: MIC/MBC by broth microdilution reference method; format: cell-based, Staphylococcus aureus; conditions: strain 1817, MSSA erythromycin resistant; broth microdilution
S. aureus 1818 (MSSA) = test: MIC/MBC by broth microdilution reference method; format: cell-based, Staphylococcus aureus; conditions: strain 1818, MSSA multi-susceptible; broth microdilution
[1] = tested on: S. aureus ATCC 29213 (MSSA reference strain); test: MIC/MBC by broth microdilution reference method; format: cell-based, Staphylococcus aureus; conditions: reference strain ATCC 29213, MSSA; broth microdilution
all S. aureus isolates = test: MIC/MBC by broth microdilution, summary over all isolates; format: cell-based, Staphylococcus aureus; conditions: summary over all S. aureus isolates of Table 1; broth microdilution

Compound: CO[C@H]1/C=C/O[C@@]2(C)Oc3c(C)c(O)c4c(c3C2=O)C2=NC3(CCN(CC(C)C)CC3)NC2=C(NC(=O)/C(C)=C\C=C\[C@H](C)[C@H](O)[C@@H](C)[C@@H](O)[C@@H](C)[C@H](OC(C)=O)[C@@H]1C)C4=O [rifabutin]
- reduction in intracellular bacteria (S. aureus): around 62.1%

Compound: CO[C@H]1/C=C/O[C@@]2(C)Oc3c(C)c(O)c4c(O)c(c(/C=N/N5CCN(C)CC5)c(O)c4c3C2=O)NC(=O)/C(C)=C\C=C\[C@H](C)[C@H](O)[C@@H](C)[C@@H](O)[C@@H](C)[C@H](OC(C)=O)[C@@H]1C [rifampicin]
- reduction in intracellular bacteria (S. aureus): approximately 54.0%

Compound: CO[C@H]1/C=C/O[C@@]2(C)Oc3c(C)c(O)c4c(O)c(c(/C=N/N5CCN(C6CCCC6)CC5)c(O)c4c3C2=O)NC(=O)/C(C)=C\C=C\[C@H](C)[C@H](O)[C@@H](C)[C@@H](O)[C@@H](C)[C@H](OC(C)=O)[C@@H]1C [rifapentine]
- reduction in intracellular bacteria (S. aureus): 45.3%

Compound: teicoplanin [TEC]
- MBC (S. aureus 1333 (MSSA)): 1 µg/mL
- MIC (S. aureus 1333 (MSSA)): 0.5 µg/mL
- MBC (S. aureus 1334 (MSSA)): 0.5 µg/mL
- MIC (S. aureus 1334 (MSSA)): 0.25 µg/mL
- MBC (S. aureus 1814 (MRSA)): 1 µg/mL
- MIC (S. aureus 1814 (MRSA)): 0.5 µg/mL
- MBC (S. aureus 1815 (MRSA)): 1 µg/mL
- MIC (S. aureus 1815 (MRSA)): 0.5 µg/mL
- MBC (S. aureus 1816 (MSSA)): 0.5 µg/mL
- MIC (S. aureus 1816 (MSSA)): 0.25 µg/mL
- MBC (S. aureus 1817 (MSSA)): 1 µg/mL
- MIC (S. aureus 1817 (MSSA)): 0.5 µg/mL
- MBC (S. aureus 1818 (MSSA)): 2 µg/mL
- MIC (S. aureus 1818 (MSSA)): 1 µg/mL
- MBC [1]: 1 µg/mL
- MIC [1]: 0.5 µg/mL
- MICs for all S. aureus isolates (all S. aureus isolates): 0.25 to 1 mg/L
